PubChem BioAssay (NCI)
Where “and” joins values, the source holds several entries; their conditions need not be identical. Identical values can stand only once.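 Cultured in 96-well plates, cells were exposed to test compound for 48 hours across five concentrations. GI50 is the concentration that inhibits growth by half. The concentration for full growth arrest is given as TGI.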

Experiments:
Assay in all cases: growth of human tumour cells (NCI), 48 h
[1] = tested on: RXF 393 renal
[2] = tested on: HCT-116 colon
[3] = tested on: NCI/ADR-RES ovarian
[4] = tested on: NCI-H23 lung
[5] = tested on: HL-60(TB) leukemia
[6] = tested on: HT29 colon
[7] = tested on: HOP-62 NSCLC
[8] = tested on: COLO 205 colon
[9] = tested on: SF-268 CNS
[10] = tested on: SK-MEL-28 melanoma

SMILES	TGI [1]	TGI [2]	TGI [3]	TGI [4]	TGI [5]	TGI [6]	TGI [7]	TGI [8]	TGI [9]	TGI [10]	GI50 [1]	GI50 [2]	GI50 [3]	GI50 [4]	GI50 [5]	GI50 [6]	GI50 [9]	GI50 [10]	GI50 [7]	GI50 [8]
c1cncc(CNCc2cccnc2)c1	> 100 µM	> 100 µM	> 100 µM	> 100 µM	> 100 µM	> 100 µM	> 100 µM	> 100 µM	> 100 µM	> 100 µM										
C1CC2CN(CCCN3CCOCC3)C(C1)O2 (stereo unspecified)	> 100 µM	> 100 µM	> 100 µM	> 100 µM	> 100 µM	> 100 µM	> 100 µM	> 100 µM	> 100 µM	> 100 µM										
NCCOCCOCCNc1nc(-c2ccc(Cl)cc2)nc(N2CCN(c3ccccn3)CC2)n1	5.76 µM	3.22 µM	16 µM	3.83 µM	4.15 µM	3.78 µM			12.9 µM	3.23 µM	2.28 µM	1.75 µM	3.66 µM	1.86 µM	2.12 µM	1.85 µM	3.24 µM	1.74 µM		
O=c1cc(N/N=C/c2ccc(F)cc2)c2cc(Cl)ccc2[nH]1	> 100 µM	> 100 µM	> 100 µM	76.1 µM	50.9 µM	> 100 µM	> 100 µM	43.5 µM	> 100 µM	> 100 µM	23.7 µM	17.4 µM	23.5 µM	19.5 µM	18.8 µM	23.1 µM	33.6 µM	19.8 µM	20.7 µM	18.2 µM
COC(=O)COc1ccc(/C=C2/N=C(c3ccccc3)N(c3c(C)n(C)n(-c4ccccc4)c3=O)C2=O)cc1	36.5 µM	> 100 µM	> 100 µM	> 100 µM	67.2 µM	35.7 µM	97.7 µM	35.9 µM	30.5 µM	30.9 µM	19.4 µM	32.4 µM	54.8 µM	57.5 µM	26.2 µM	18.3 µM	12.8 µM	16.8 µM	31.7 µM	16 µM
COc1cc2c(cc1O)CC1c3c(cc(O)c(OC)c3-2)CCN1C (stereo unspecified)	> 100 µM	> 100 µM	> 100 µM	> 100 µM	> 100 µM	> 100 µM	> 100 µM	> 100 µM	> 100 µM	> 100 µM										
Cc1cc(N=C2C=C(Br)C(=O)C(Br)=C2)cc(CN(CC(=O)O)CC(=O)O)c1O	> 100 µM	> 100 µM	> 100 µM	> 100 µM	> 100 µM	> 100 µM	> 100 µM	> 100 µM	> 100 µM	> 100 µM										
Cc1nn2c(/C=C3/C(=O)Nc4cc(Cl)ccc43)c(-c3ccccc3)nc2s1	5.97 µM	3.46 µM	> 100 µM	> 100 µM	> 100 µM	> 100 µM	17.9 µM	> 100 µM	> 100 µM		2.27 µM	1.85 µM	3.54 µM	3.68 µM	> 100 µM	11.1 µM	6.81 µM		4.4 µM	74.4 µM
C1=C2CCCC3=Cc4ccccc4OC23Oc2ccccc21	8.77 µM	> 100 µM	55.7 µM	> 100 µM	> 100 µM	17.9 µM	> 100 µM	5.04 µM	> 100 µM	> 100 µM	2.85 µM	4.35 µM	3.18 µM	6.2 µM	3.24 µM	3.52 µM	4.74 µM	5.22 µM	3.8 µM	2.24 µM
CCCCCC[C@H](C)Nc1nc2ccccc2c2occc12	30.6 µM	13.3 µM	12.8 µM	7.23 µM	37.8 µM	> 100 µM	23.9 µM	> 100 µM	> 100 µM	47.2 µM	12.6 µM	3.2 µM	0.147 µM	0.576 µM	11.9 µM	8.15 µM	> 100 µM	21.2 µM	11.5 µM	34.4 µM
C1CC[N-]CC1.CC(=N\O)/C(C)=N/O.CC(=N\O)/C(C)=N/O.OC1[CH-]CCCC1.[Co+2]	62.4 µM	> 100 µM	> 100 µM		72.5 µM	> 100 µM	> 100 µM	34.5 µM	> 100 µM	> 100 µM	19.2 µM	30.3 µM	> 100 µM		21.7 µM	72.5 µM	44.8 µM	32.5 µM	> 100 µM	19 µM
C=CC(=O)Nc1cc(N2CCN(CC)CC2)ccc1Nc1cc(N(C)C(=O)Nc2c(Cl)c(OC)cc(OC)c2Cl)ncn1	9.76 µM	14.2 µM	70.5 µM	20 µM	25.3 µM	5.29 µM	28.8 µM	18.3 µM	27.7 µM	4.53 µM	2.98 µM	3.37 µM	20.5 µM	4.36 µM	4.91 µM	2.24 µM	5.53 µM	2.03 µM	11.9 µM	4.16 µM
CC(C)Cc1ccc(C(C)CC2=CCC(CN(C)C)C2=O)cc1 (stereo unspecified)	14.3 µM	11.1 µM	43.7 µM	28.2 µM	4.47 µM	17.5 µM	36.4 µM	6.77 µM	30 µM	21.9 µM										
COc1cc2c(cc1OCCCCCCN1CCN(CC(=O)Nc3ccc(Cl)cc3C(=O)c3ccccc3Cl)CC1)N=CC1CCCN1C2=O (stereo unspecified)	0.324 µM	0.481 µM	2.48 µM	0.468 µM		0.576 µM	0.294 µM	0.314 µM		0.332 µM	0.168 µM	0.183 µM	0.733 µM	0.198 µM	0.244 µM	0.229 µM		0.185 µM	0.146 µM	0.154 µM
CC(C)=CCC(OC(=O)C=C(C)C)C1=CC(=O)c2c(O)ccc(O)c2C1=O (stereo unspecified)	0.533 µM and 0.467 µM	2.68 µM and 1.04 µM	29.5 µM and 3.16 µM	7.06 µM and 2.96 µM	1.09 µM and 0.79 µM	8.41 µM and 4.43 µM	25.7 µM and 24.4 µM	2.12 µM and 1.37 µM	9.83 µM and 4.06 µM	2.52 µM and 2.67 µM		0.63 µM	3.68 µM	2.46 µM and 1.06 µM		2.49 µM	3.35 µM	1.01 µM		0.751 µM
